Reference: patent publication US20250171438A1 (Agios Pharmaceuticals, Inc., priority 2022, published 2025)

The molecules below were run against T1, human PAH with the R408W mutation (Homo sapiens, UniProt P00439, R408W) (assay: Cell Based Phenylalanine Flux Assay). Conditions: A375 cells expressing human R408W PAH; 24 hrs compound incubation; 13C-Tyrosine by LC-MS; average where tested multiple times; read-out: AC50.
T1 construct: expressed in transfected cells
T1 sequence (P00439 1-452 R408W): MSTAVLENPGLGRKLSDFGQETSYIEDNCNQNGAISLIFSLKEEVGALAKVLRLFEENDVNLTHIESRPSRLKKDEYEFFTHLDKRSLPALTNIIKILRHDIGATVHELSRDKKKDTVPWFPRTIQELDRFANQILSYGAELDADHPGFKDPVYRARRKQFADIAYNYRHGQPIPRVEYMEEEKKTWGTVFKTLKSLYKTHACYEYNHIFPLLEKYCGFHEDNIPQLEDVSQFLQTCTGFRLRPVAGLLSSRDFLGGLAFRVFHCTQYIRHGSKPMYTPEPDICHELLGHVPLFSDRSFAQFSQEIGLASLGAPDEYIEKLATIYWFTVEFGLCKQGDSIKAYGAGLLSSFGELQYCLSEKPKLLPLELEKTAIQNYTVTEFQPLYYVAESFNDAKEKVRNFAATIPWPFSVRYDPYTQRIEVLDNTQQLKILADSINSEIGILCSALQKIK

SMILES | AC50 [nM]
O=C(c1nnc(-n2cccn2)o1)N1CCc2[nH]cnc2[C@H]1c1nc2ccccc2s1 [Example 1792] | < 500
Cn1cc(C(F)(F)C(=O)N2CCc3[nH]cnc3[C@@H]2c2nc3ccccc3s2)cn1 [Example 1556, (R)-1-(4-(benzo[d]thiazol-2-yl)-6,7-dihydro-1H-imidazo[4,5-c]pyridin-5(4H)-yl)-2,2-difluoro-2-(1-methyl-1H-pyrazol-4-yl)ethanone] | 1000 to 5000
O=C(c1nc2cc(F)ccc2s1)N1CCc2[nH]cnc2[C@H]1c1nc2ccccc2s1 [Example 1095] | 500 to 1000
O=C(c1oc(-c2ccccn2)nc1C(F)F)N1CCc2[nH]cnc2[C@H]1c1nc2c(F)cccc2s1 [Example 1798, (S)-(4-(difluoromethyl)-2-(pyridin-2-yl)oxazol-5-yl)(4-(4-fluorobenzo[d]thiazol-2-yl)-6,7-dihydro-1H-imidazo[4,5-c]pyridin-5(4H)-yl)methanone] | < 500
Cn1cc(C(=O)N2CCc3[nH]cnc3[C@H]2c2nc3c(F)cccc3s2)c(C(F)F)n1 [Example 1841, (S)-(3-(difluoromethyl)-1-methyl-1H-pyrazol-4-yl)(4-(4-fluorobenzo[d]thiazol-2-yl)-6,7-dihydro-1H-imidazo[4,5-c]pyridin-5(4H)-yl)methanone] | < 500
Cc1nc(CCN(C)C)oc1C(=O)N1CCc2[nH]cnc2[C@H]1c1nc2ccccc2s1 [Example 1659] | 1000 to 5000
CC(C)(O)c1ccc2c(C(=O)N3CCc4[nH]cnc4[C@H]3c3nc4c(F)cccc4s3)cnn2c1 [Example 1501, (S)-(4-(4-fluorobenzo[d]thiazol-2-yl)-6,7-dihydro-1H-imidazo[4,5-c]pyridin-5(4H)-yl)(6-(2-hydroxypropan-2-yl)pyrazolo[1,5-a]pyridin-3-yl)methanone] | < 500
O=C(c1cnc(C2CC2)o1)N1CCc2[nH]cnc2[C@H]1c1nc2ccccc2s1 [Example 1187] | 500 to 1000
CC(C)(O)c1nc(C#N)c(C(=O)N2CCc3[nH]cnc3[C@H]2c2nc3ccccc3s2)o1 [Example 1697, (S)-5-(4-(benzo[d]thiazol-2-yl)-4,5,6,7-tetrahydro-1H-imidazo[4,5-c]pyridine-5-carbonyl)-2-(2-hydroxypropan-2-yl)oxazole-4-carbonitrile] | 500 to 1000
O=C(c1cnc(C(F)F)s1)N1CCc2[nH]cnc2[C@H]1c1nc2ccccc2s1 [Example 1521] | < 500
Cc1cccc2nc([C@@H]3c4nc[nH]c4CCN3C(=O)c3cnco3)sc12 [Example 2179, (S)-(4-(7-methylbenzo[d]thiazol-2-yl)-6,7-dihydro-1H-imidazo[4,5-c]pyridin-5(4H)-yl)(oxazol-5-yl)methanone] | < 500
O=C(N1CCc2[nH]cnc2[C@@H]1c1nc2c(F)cccc2s1)C(F)(F)C1(O)CCC1 [Example 1656, (R)-2,2-difluoro-1-(4-(4-fluorobenzo[d]thiazol-2-yl)-6,7-dihydro-1H-imidazo[4,5-c]pyridin-5(4H)-yl)-2-(1-hydroxycyclobutyl)ethanone] | 1000 to 5000
CC(C)(O)c1ncc(C(=O)N2CCc3[nH]cnc3[C@@H]2c2nc3ccccc3s2)o1 [Example 1447, (R)-(4-(benzo[d]thiazol-2-yl)-6,7-dihydro-1H-imidazo[4,5-c]pyridin-5(4H)-yl)(2-(2-hydroxypropan-2-yl)oxazol-5-yl)methanone] | 1000 to 5000
O=C(c1cncs1)N1CCc2[nH]cnc2[C@H]1c1nc2c(F)cccc2s1 [Example 1217, (S)-(4-(4-fluorobenzo[d]thiazol-2-yl)-6,7-dihydro-1H-imidazo[4,5-c]pyridin-5(4H)-yl)(thiazol-5-yl)methanone] | 500 to 1000
CC(C)(O)c1cc(C(=O)N2CCc3[nH]cnc3[C@H]2c2nc3c(F)cccc3s2)on1 [Example 2170, (S)-(4-(4-fluorobenzo[d]thiazol-2-yl)-6,7-dihydro-1H-imidazo[4,5-c]pyridin-5(4H)-yl)(3-(2-hydroxypropan-2-yl)isoxazol-5-yl)methanone] | 1000 to 5000
O=C(c1ccnn1C(F)(F)F)N1CCc2[nH]cnc2[C@@H]1c1nc2c(F)cccc2s1 [Example 2100, (R)-(4-(4-fluorobenzo[d]thiazol-2-yl)-6,7-dihydro-1H-imidazo[4,5-c]pyridin-5(4H)-yl)(1-(trifluoromethyl)-1H-pyrazol-5-yl)methanone] | 1000 to 5000
O=C(Cc1ncc(C2CC2)s1)N1CCc2[nH]cnc2[C@H]1c1nc2ccccc2s1 [Example 1459] | 500 to 1000
N#Cc1ccn2ncc(C(=O)N3CCc4[nH]cnc4[C@@H]3c3nc4cc(F)ccc4s3)c2c1 [Example 1159, (R)-3-(4-(5-fluorobenzo[d]thiazol-2-yl)-4,5,6,7-tetrahydro-1H-imidazo[4,5-c]pyridine-5-carbonyl)pyrazolo[1,5-a]pyridine-5-carbonitrile] | > 5000
COC(C)(C)c1nc(C)c(C(=O)N2CCc3[nH]cnc3[C@H]2c2nc3c(F)cccc3s2)o1 [Example 1916, (S)-(4-(4-fluorobenzo[d]thiazol-2-yl)-6,7-dihydro-1H-imidazo[4,5-c]pyridin-5(4H)-yl)(2-(2-methoxypropan-2-yl)-4-methyloxazol-5-yl)methanone] | 1000 to 5000
O=C(c1cnco1)N1CCc2[nH]cnc2[C@H]1c1nc2c(F)cccc2s1 [Example 1223, (S)-(4-(4-fluorobenzo[d]thiazol-2-yl)-6,7-dihydro-1H-imidazo[4,5-c]pyridin-5(4H)-yl)(oxazol-5-yl)methanone] | 500 to 1000
O=C(c1oc(C2CC2)nc1C(F)F)N1CCc2[nH]cnc2[C@H]1c1nc2c(F)cccc2s1 [Example 1571, (S)-(2-cyclopropyl-4-(difluoromethyl)oxazol-5-yl)(4-(4-fluorobenzo[d]thiazol-2-yl)-6,7-dihydro-1H-imidazo[4,5-c]pyridin-5(4H)-yl)methanone] | < 500
C[C@H](O)c1nc(C(F)F)c(C(=O)N2CCc3[nH]cnc3[C@@H]2c2nc3c(F)cccc3s2)o1 [Example 1962, (4-(difluoromethyl)-2-((S)-1-hydroxyethyl)oxazol-5-yl)((R)-4-(4-fluorobenzo[d]thiazol-2-yl)-6,7-dihydro-1H-imidazo[4,5-c]pyridin-5(4H)-yl)methanone] | 1000 to 5000
O=C(c1cnc(-c2ccccn2)o1)N1CCc2[nH]cnc2[C@H]1c1nc2ccccc2s1 [Example 1317] | < 500
Cn1cc(C(=O)N2CCc3[nH]cnc3[C@H]2c2nc3ccccc3s2)c(Cl)n1 [Example 1870] | < 500
O=C(c1nncs1)N1CCc2[nH]cnc2[C@H]1c1nc2cccc(F)c2s1 [Example 1266, (S)-(4-(7-fluorobenzo[d]thiazol-2-yl)-6,7-dihydro-1H-imidazo[4,5-c]pyridin-5(4H)-yl)(1,3,4-thiadiazol-2-yl)methanone] | < 500
O=C(c1cnn2ccc(Cl)cc12)N1CCc2[nH]cnc2[C@H]1c1nc2ccc(F)cc2s1 [Example 1151] | < 500
O=C(c1nccs1)N1CCc2[nH]cnc2[C@H]1c1nc2cccc(F)c2s1 [Example 1101, (S)-(4-(7-fluorobenzo[d]thiazol-2-yl)-6,7-dihydro-1H-imidazo[4,5-c]pyridin-5(4H)-yl)(thiazol-2-yl)methanone] | 500 to 1000
O=C(c1nc2ccccc2o1)N1CCc2[nH]cnc2[C@H]1c1nc2ccccc2s1 [Example 1129, (S)-benzo[d]oxazol-2-yl(4-(benzo[d]thiazol-2-yl)-1,4,6,7-tetrahydro-5H-imidazo[4,5-c]pyridin-5-yl)methanone] | < 500

Same assay, conditions: A375 cells expressing human R408W PAH; 24 hrs with compound; 13C-Tyrosine by LC-MS; average where tested multiple times; read-out: AC50

SMILES | AC50 [nM]
O=C(c1cnn2c(Br)cccc12)N1CCc2[nH]cnc2C1c1nc2ccc(Cl)cc2[nH]1 (stereo not shown) | 1000 to 5000
O=C(Cc1nccs1)N1CCc2[nH]cnc2C1c1nc2ccc(Cl)cc2[nH]1 (stereo not shown) | 1000 to 5000
O=C(CCc1nccs1)N1CCc2nc[nH]c2C1c1nc2cc(Br)ccc2s1 (stereo not shown) | > 5000
O=C(c1cnco1)N1CCc2[nH]cnc2C1c1nc2ccc(F)cc2s1 (stereo not shown) | > 5000
O=C(C1CC1)N1CCc2[nH]cnc2C1c1nc2c(F)cccc2s1 (stereo not shown) | > 5000
Cc1ncc(C(=O)N2CCc3[nH]cnc3C2c2nc3ccccc3s2)s1 (stereo not shown) | > 5000
Cc1nc(C(=O)N2CCc3[nH]cnc3C2c2nc3ccccc3s2)n(C)n1 (stereo not shown) | > 5000
O=C(Cc1nccs1)N1CCc2[nH]cnc2C1c1nc2cc(F)ccc2s1 (stereo not shown) | > 5000
O=C(c1cnco1)N1CCc2[nH]cnc2[C@@H]1c1nc2cc(F)ccc2s1 (single isomer, unassigned) | > 5000
Cc1csc(CCC(=O)N2CCc3[nH]cnc3[C@H]2c2nc3ccccc3[nH]2)n1 [(S)-1-(4-(1H-benzo[d]imidazol-2-yl)-1,4,6,7-tetrahydro-5H-imidazo[4,5-c]pyridin-5-yl)-3-(4-methylthiazol-2-yl)propan-1-one] | 1000 to 5000
O=C(c1ncn2ccccc12)N1CCc2[nH]cnc2C1c1nc2ccccc2[nH]1 (stereo not shown) | > 5000
Cc1nnc(CCC(=O)N2CCc3[nH]cnc3C2c2nc3ccccc3[nH]2)s1 (stereo not shown) | 1000 to 5000
O=C(Cc1cncs1)N1CCc2[nH]cnc2[C@H]1c1nc2ccccc2[nH]1 [(S)-1-(4-(1H-benzo[d]imidazol-2-yl)-6,7-dihydro-1H-imidazo[4,5-c]pyridin-5(4H)-yl)-2-(thiazol-5-yl)ethanone] | 1000 to 5000
O=C(CCc1cncs1)N1CCc2[nH]cnc2[C@H]1c1nc2ccccc2[nH]1 [(S)-1-(4-(1H-benzo[d]imidazol-2-yl)-1,4,6,7-tetrahydro-5H-imidazo[4,5-c]pyridin-5-yl)-3-(thiazol-5-yl)propan-1-one] | > 5000
Cc1nnc(C(=O)N2CC(C)c3[nH]cnc3C2c2nc3ccccc3s2)o1 (stereo not shown) | 1000 to 5000
